This data set has as its system CD-1 mice. The text has this:
Lethal doses LD10 of a cytostatic active substance determinated in mice is generally considered as being a significative correlation with the maximum tolerated doses (MTD) in man.

Like-named read-outs stand apart in the source and are kept apart here.

`O=C1[O][Pt]2([NH]C3CCCCC3[NH]2)[O]C1=O` (stereo not drawn) [Example 1, cis-oxalate (trans l-1,2-cyclohexanediamine)-platinum (II)]: the LD10 entry is “around 14.4” (same solution with addition of oxalic acid at a final concentration of 0.2 mM (second group)) and “around 18.0 mg/kg” (solution of the oxaliplatin active substance alone (first group)).

The values above are taken from patent US8211940B2 (Debiopharm S.A., priority 2001, dated 2012).
